From US20070196478A1, “ANTIVIRAL COMPOSITIONS” (priority 1999, published 2007)

Test: thermal stability of the antiviral compound after melt extrusion (HPLC)
Assay type: physicochemical
Details: melt extrudate with HPMC 2910 5 mPa·s, 70° C. to […] C.
Description: The melt extrudate was milled and fractions with particle size below 150 μm (condition I in point 6) and between 500 and 850 μm (condition II in point 6) were collected.

For `Cc1cc(C)c(Nc2ccnc(Nc3ccc(C#N)cc3)n2)c(C)c1` [Compound 17 of formula (I-A), 4-[[4-[(2,4,6-trimethylphenyl)amino]-2-pyrimidinyl]amino]benzonitrile], the “degradation of the antiviral compound after melt extrusion” value was “No degradation”.
